Test results reported in patent publication US9512180B2, “Compstatin analogs” (THE REGENTS OF THE UNIVERSITY OF CALIFORNIA, priority 2012, dated 2016).
pIC50: −log10 of the molar value. Bridge positions count the residues as written; N and C are the ends. Square brackets hold non-standard residues; d marks the D form. Peptide text beside a SMILES is read from it. Trp(1-Me) = Cn1cc(C[C@H](N)C(=O)O)c2ccccc21

Assays:
[1] = test system: complement alternative pathway (AP); experiment: C3b ELISA (inhibition of C3b formation); type: biochemical, human; conditions: for pIC50: Table 9, means from three independent experiments, read-out: IC50, C3b ELISA
Procedure: Inhibition of the complement alternative pathway (AP) by compstatin family peptides was assayed by ELISA. Peptides were dissolved in phosphate buffered saline (PBS, 150 mM). Initial peptide concentrations were calculated using the Beer-Lambert Law with an extinction coefficient of 5,500 (1/M·cm) for Trp and 5,470 (1/M·cm) for methylated-Trp present in the sequence, at 280 nm. Nunc Maxisorp 96-well plates were coated with 1 μg lipopolysaccharides (LPS) from Salmonella enteriditis for ˜16 h at room temperature. Plates were washed three times with PBS/0.05% Tween-20 (PBS-T) between each step. Plates were blocked with 4% bovine serum albumin (BSA) in PBS-T for 1 h at 37° C. Serial peptide dilutions were performed in 96-well plates, using gelatin veronal-buffered saline with 5 mM MgCl2 and 10 mM EGTA (GVBS-MgEGTA). Normal human serum (Complement Technology Inc., Tyler, Tex., USA) was diluted in GVBS-MgEGTA and mixed with compstatin serial dilutions to a final concentration of 30%. Serum diluted in GVBS-MgEGTA and GVBS (containing 20 mM EDTA) were used as positive and negative controls for complement activation, respectively. Dilutions were preincubated for 15 minutes at room temperature, transferred to ELISA plates, and incubated for 1 h at 37° C. Generation of C3b and C5b-9 were assayed using horseradish peroxidase (HRP)-conjugated anti-C3 (MP Biomedicals, Solon, Ohio, USA) and anti-05b-9 aEll (Abcam, Cambridge, Mass., USA), respectively. Plates were washed and incubated with either anti-C3-HRP (1:5000 in 1% BSA/PBS-T) or anti-05b-9 (1:1000 in 1% BSA/PBS-T) for 1 h at 37° C. For C5b-9 detection, primary antibody incubation was followed by incubation with anti-mouse-HRP (BioRad, Hercules, Calif., USA) for 1 h at 37° C. (1:5000 in 1% BSA/PBS-T). Bound C3b and C5b-9 were quantified using a 3,3′,5,5′-tetramethylbenzidine substrate solution containing urea hydrogen peroxide in 0.11 M sodium acetate buffer, followed by a 1 N H2SO4 acid stop. Plates were measured spectrophotometrically at 450 nm. Percent inhibition of C3b and C5b-9 deposition was plotted against peptide concentration and the data was fitted to a logistic dose response curve with Prism software (GraphPad, San Diego, Calif., USA) to determine IC50 values.
In all assays, MgEGTA was used to chelate Ca′ ions required for classical/lectin pathway complement activation, while providing Mg′ necessary for AP activation. ELISAs allow for direct detection of C3b and C5b-9 formed during AP activation, while erythrocyte lysis assays provide a functional assessment of AP-mediated hemolysis in serum. […] Table 9 summarizes the IC50 values derived from the three different assays. […] The relative potencies of the peptides, based on the measured ICH values, are consistent across all three assays (Peptide III˜Peptide VI˜Peptide IX>Peptide I>Parent). Based on the assay conditions used in this study, peptides inhibited C5b-9 formation with moderately better efficacy than formation of C3b, while slightly higher concentrations were necessary to inhibit AP-mediated hemolysis.

[2] = test system: complement alternative pathway (AP); experiment: Hemolytic assay (rabbit erythrocyte lysis in human serum); type: cell-based; conditions: for pIC50: Table 9, means from three independent experiments, read-out: IC50, Hemolytic assay
Procedure: Inhibition of complement was also measured via lysis of erythrocytes. Rabbit erythrocytes (Complement Technology Inc., Tyler, Tex., USA) were washed in PBS and resuspended in veronal-buffered saline with 5 mM MgCl2 and 10 mM EGTA (VBS-MgEGTA). Peptide and serum dilutions were prepared as described above, and 1×10^7 erythrocytes were added to each serum/peptide mixture. Erythrocytes diluted in sterile deionized water and in VBS-MgEGTA were used as positive and negative controls for lysis, respectively. Plates were incubated for 20 minutes at 37° C., and centrifuged at 2500×g for 10 minutes.
In all assays, MgEGTA was used to chelate Ca′ ions required for classical/lectin pathway complement activation, while providing Mg′ necessary for AP activation. ELISAs allow for direct detection of C3b and C5b-9 formed during AP activation, while erythrocyte lysis assays provide a functional assessment of AP-mediated hemolysis in serum.

[3] = Aqueous solubility by concentration measurement (absorbance at 280 nm) of saturated peptide solutions; type: physicochemical
Procedure: The relative lipophilicities of Peptides I, III, VI, IX, and Parent are inversely consistent with solubilities as determined via concentration measurement (absorbance at 280 nm) of saturated peptide solutions, with Peptides I, III, and Parent having approximate aqueous solubilities of >1 mM, Peptide VI>500 μM, and Peptide IX<500 μM.

Structure (SMILES)	inhibition less than other peptides ([1]; C3b inhibition in ELISA, versus Peptides I, III, VI, IX)	pIC50 [1]	pIC50 [2]	difference in inhibition to other peptides ([2]; hemolysis, versus Peptides I, III, VI, IX)	solubility [3] [µM]
CC[C@H](C)[C@H](N)C(=O)N[C@H]1CSSC[C@@H](C(=O)N[C@H](C(N)=O)[C@@H](C)O)NC(=O)[C@H](CCCN=C(N)N)NC(=O)[C@H](Cc2cnc[nH]2)NC(=O)[C@H](Cc2cnc[nH]2)NC(=O)CNC(=O)[C@H](Cc2c[nH]c3ccccc23)NC(=O)[C@H](CC(=O)O)NC(=O)[C@H](CCC(N)=O)NC(=O)[C@H](C(C)C)NC(=O)[C@H](C(C)C)NC1=O [Parent, ICV VQDWGH HRCT-NH2, reference compound]	10- to 15 fold	4.46	4.89	4- to 6 fold	–
CC(=O)N[C@@H](CCCNC(=N)N)C(=O)N[C@H]1CSSC[C@@H](C(=O)N[C@H](C(N)=O)[C@@H](C)O)NC(=O)[C@H](CCCNC(=N)N)NC(=O)[C@H](Cc2c[nH]cn2)NC(=O)[C@H](C)NC(=O)CNC(=O)[C@H](Cc2c[nH]c3ccccc23)NC(=O)[C@H](CC(=O)O)NC(=O)[C@H](CCC(N)=O)NC(=O)[C@H](Cc2c[nH]c3ccccc23)NC(=O)[C@H](C(C)C)NC1=O [Peptide I, Ac- RCV WQDWGA HRCT-NH2] (Ac-RCVWQDWGAHRCT-NH2; disulfide 2-12)	–	5.59	5.48	–	> 1000
CC(=O)N[C@@H](CCCNC(=N)N)C(=O)N[C@H]1CSSC[C@@H](C(=O)N[C@H](C(N)=O)[C@@H](C)O)NC(=O)[C@H](CCCNC(=N)N)NC(=O)[C@H](Cc2c[nH]cn2)NC(=O)[C@H](C)NC(=O)CNC(=O)[C@H](Cc2c[nH]c3ccccc23)NC(=O)[C@H](CC(=O)O)NC(=O)[C@H](CCC(N)=O)NC(=O)[C@H](Cc2cn(C)c3ccccc23)NC(=O)[C@H](C(C)C)NC1=O [Peptide III, Ac- RCV meWQDWGA HRCT-NH2] (Ac-RCV[Trp(1-Me)]QDWGAHRCT-NH2; disulfide 2-12)	–	5.85	5.65	–	> 1000
CC[C@H](C)[C@H](NC(=O)[C@H](CO)NC(=O)[C@H](CCCNC(=N)N)NC(C)=O)C(=O)N[C@H]1CSSC[C@@H](C(=O)N[C@H](C(N)=O)[C@@H](C)O)NC(=O)[C@H](CCCNC(=N)N)NC(=O)[C@H](Cc2c[nH]cn2)NC(=O)[C@H](C)NC(=O)CNC(=O)[C@H](Cc2c[nH]c3ccccc23)NC(=O)[C@H](CC(=O)O)NC(=O)[C@H](CCC(N)=O)NC(=O)[C@H](Cc2cn(C)c3ccccc23)NC(=O)[C@H](C(C)C)NC1=O [Peptide VI, Ac-RS-ICV meWQDWGA HRCT-NH2]	–	5.76	5.65	–	> 500
